According to the NIST ThermoML archive (doi:10.1021/je060271a):

Conditions: 303.15 K, Liquid, Vibrating tube method

CCCCCCCC(=O)OCC(COC(=O)CCCCCCC)(COC(=O)CCCCCCC)COC(=O)CCCCCCC [pentaerythritol tetraoctanoate]
Conditions	mass density [kg/m3]
17535 kPa	966
17571 kPa	965.8
17601 kPa	966
17637 kPa	966
17674 kPa	966.1
17705 kPa	966
17742 kPa	966.1
17773 kPa	966.1
17810 kPa	966
17848 kPa	966.2
17879 kPa	966.2
17916 kPa	966.1
17948 kPa	966.1
17985 kPa	966.2
18024 kPa	966.2
18056 kPa	966
18095 kPa	966.2
18133 kPa	966.3
18165 kPa	966.2
18205 kPa	966.3
18238 kPa	966.4
18278 kPa	966.3
18311 kPa	966.4
18351 kPa	966.5
18391 kPa	966.5
18424 kPa	966.4
18465 kPa	966.4
18499 kPa	966.5
18540 kPa	966.5
18573 kPa	966.5
18614 kPa	966.5
18656 kPa	966.5
18690 kPa	966.5
18732 kPa	966.6
18768 kPa	966.6
18810 kPa	966.7
18851 kPa	966.7
18886 kPa	966.8
18930 kPa	966.6
18966 kPa	966.7
19009 kPa	966.9
19045 kPa	966.8
19087 kPa	966.7
19131 kPa	966.9
19168 kPa	966.8
19211 kPa	966.9
19248 kPa	967
19292 kPa	967.1
19338 kPa	966.9
19375 kPa	966.9
19420 kPa	966.9
19458 kPa	967
19502 kPa	967
19548 kPa	967.1
19586 kPa	967.1
19632 kPa	967.1
19677 kPa	967.1
19715 kPa	967.1
19762 kPa	967.2
19802 kPa	967.2
19851 kPa	967.3
19890 kPa	967.2
19938 kPa	967.3
19986 kPa	967.3
20025 kPa	967.4
20074 kPa	967.3
20115 kPa	967.4
20163 kPa	967.4
20203 kPa	967.4
20252 kPa	967.5
20302 kPa	967.4
20344 kPa	967.4
20397 kPa	967.5
20440 kPa	967.5
20489 kPa	967.5
20532 kPa	967.5
20582 kPa	967.6
20632 kPa	967.7
20674 kPa	967.7
20724 kPa	967.7
20766 kPa	967.8
20817 kPa	967.8
20872 kPa	967.7
20948 kPa	968
21030 kPa	968
21112 kPa	968
21144 kPa	968
21170 kPa	968
21194 kPa	968
21222 kPa	968
21244 kPa	967.9
21272 kPa	968
21299 kPa	968
21322 kPa	968.1
21350 kPa	968
21374 kPa	968
21402 kPa	968.1
21425 kPa	968.1
21454 kPa	968.2
21478 kPa	968.1
21506 kPa	968.1
21533 kPa	968.2
21557 kPa	968.2
21585 kPa	968.2
21610 kPa	968.2
21636 kPa	968.2
21666 kPa	968.2
21690 kPa	968.2
21721 kPa	968.4
21743 kPa	968.2
21775 kPa	968.2
21798 kPa	968.3
21827 kPa	968.3
21850 kPa	968.4
21880 kPa	968.3
21909 kPa	968.3
21933 kPa	968.4
21964 kPa	968.4
21988 kPa	968.3
22017 kPa	968.4
22049 kPa	968.5
22071 kPa	968.4
22101 kPa	968.5
22126 kPa	968.5
22158 kPa	968.6
22186 kPa	968.5
22214 kPa	968.5
22241 kPa	968.7
22266 kPa	968.6
22297 kPa	968.6
22328 kPa	968.6
22355 kPa	968.7
22385 kPa	968.7
22411 kPa	968.7
22441 kPa	968.7
22473 kPa	968.8
22499 kPa	968.6
22531 kPa	968.8
22556 kPa	968.7
22588 kPa	968.8
22614 kPa	968.8
22647 kPa	968.8
22677 kPa	968.8
22703 kPa	968.9
22736 kPa	968.8
22762 kPa	968.9
22795 kPa	968.9
22823 kPa	968.9
22855 kPa	969
22884 kPa	969
22910 kPa	968.9
22944 kPa	968.9
22976 kPa	969
23001 kPa	969
23032 kPa	968.9
23066 kPa	969.2
23092 kPa	969
23125 kPa	969.1
23153 kPa	968.9
23185 kPa	969.2
23220 kPa	969.1
23246 kPa	969.2
23276 kPa	969.1
23312 kPa	969.2
23339 kPa	969.2
23371 kPa	969.2
23405 kPa	969.2
23434 kPa	969.3
23465 kPa	969.3
23500 kPa	969.2
23527 kPa	969.3
23561 kPa	969.3
23590 kPa	969.3
23626 kPa	969.4
23656 kPa	969.3
23690 kPa	969.4
23721 kPa	969.3
23753 kPa	969.5
23781 kPa	969.4
23817 kPa	969.5
23853 kPa	969.5
23880 kPa	969.5
23917 kPa	969.4
23950 kPa	969.5
23980 kPa	969.6
24016 kPa	969.5
24045 kPa	969.7
24080 kPa	969.5
24110 kPa	969.7
24146 kPa	969.6
24184 kPa	969.6
24212 kPa	969.6
24254 kPa	969.8
24280 kPa	969.7
24317 kPa	969.7
24348 kPa	969.8
24384 kPa	969.8
24420 kPa	969.7
24450 kPa	969.8
24488 kPa	969.9
24520 kPa	969.9
24557 kPa	969.8
24589 kPa	969.8
24627 kPa	969.8
24658 kPa	969.9
24697 kPa	969.9
24728 kPa	969.8
24766 kPa	970
24804 kPa	969.9
24836 kPa	969.9
24874 kPa	970.1
24906 kPa	970.1
24945 kPa	970.2
24978 kPa	970.1
25016 kPa	970.1
25048 kPa	970.2
25087 kPa	970.1
25126 kPa	970.1
25159 kPa	970.1
25199 kPa	970.2
25232 kPa	970.1
25272 kPa	970.2
25310 kPa	970.3
25343 kPa	970.2
25382 kPa	970.2
25416 kPa	970.2
25457 kPa	970.3
25491 kPa	970.4
25532 kPa	970.3
25575 kPa	970.3
25611 kPa	970.5
25653 kPa	970.3
25689 kPa	970.7
25726 kPa	970.3
25768 kPa	970.5
25804 kPa	970.5
25845 kPa	970.5
25882 kPa	970.6
25929 kPa	970.6
25969 kPa	970.5
26006 kPa	970.5
26051 kPa	970.7
26084 kPa	970.7
26119 kPa	970.7
26164 kPa	970.7
26203 kPa	970.7
26241 kPa	970.8
26285 kPa	970.8
26318 kPa	970.7
26384 kPa	970.8
26413 kPa	970.8
26446 kPa	970.8
26474 kPa	970.9
26520 kPa	970.9
26558 kPa	971
26597 kPa	971
26642 kPa	970.9
26681 kPa	971.1
26720 kPa	971
26767 kPa	971.1
26806 kPa	971.1
26846 kPa	971.1
26893 kPa	971.1
26934 kPa	971.2
26974 kPa	971
27015 kPa	971.2
27064 kPa	971.2
27104 kPa	971.2
27153 kPa	971.2
27193 kPa	971.2
27234 kPa	971.3
27275 kPa	971.4
27317 kPa	971.3
27366 kPa	971.3
27407 kPa	971.4
27450 kPa	971.4
27500 kPa	971.4
27543 kPa	971.4
27585 kPa	971.6
27636 kPa	971.4
27678 kPa	971.4
27720 kPa	971.6
27763 kPa	971.5
27814 kPa	971.6
27856 kPa	971.5
27907 kPa	971.5
27950 kPa	971.7
27993 kPa	971.7
28045 kPa	971.7
28089 kPa	971.7
28134 kPa	971.8
28178 kPa	971.9
28230 kPa	971.9
28273 kPa	971.8
28325 kPa	972
28369 kPa	971.9
